Values joined by “and” are separate entries in the source; they are usually repeats but may differ in a detail not shown here. Identical values can stand only once.
What was measured:
U937 cells = assay: U937 apoptosis, sub-G0/1 cells by flow cytometry; format: cell-based, Human; conditions: 177 μM, 24 h
Procedure: Apoptosis Assays: U937 cells (5×10^5/ml) were cultured with vehicle (0.5% DMSO) or 177 μM D609 or prodrug 2. After 24 h incubation, the cells were harvested, washed and then fixed in 70% ethanol at 4° C. for 24 h. They were stained with a PI staining solution (PBS containing PI 50 μg/ml; RNase A 100 U/ml; and 0.1 mM EDTA) for 2 h at room temperature before flow cytometric analysis (10,000 events/sample). The percentage of apoptotic cells was determined by quantification of the sub-G0/1 population using a FACS Caliber (Becton Dickinson, San Jose, Calif.).

[1] = rat, plasma
Procedure: At various times of the incubation, the hydrolysis of prodrug 2 was monitored by HPLC analysis, and the release of D609 was determined by measuring the colorimetric reaction of D609 with DTNB (3 mM). The data are presented as mean±SE of three independent assays.
After incubation at 37° C., aliquots (100 μl) of the plasma were removed at various times and immediately mixed with an equal volume of DTNB in acetonitrile (3 mM DTNB). Acetonitrile was used to quickly inactivate plasma esterases and to precipitate plasma proteins. After removal of the precipitated plasma proteins by centrifugation, the concentrations of the D609 prodrug and D609 in the clear plasma supernatants were determined by HPLC and DTNB assays, respectively, as described above.

[2] = system: normal human diploid fibroblasts-WI38 cells; assay: MTT cell viability, WI38 normal fibroblasts; format: cell-based; conditions: for LD50: normal cells
[3] = system: leukemia cells (U937, Jurkat, SupT13 and A20), solid tumor cells (HT1080); assay: MTT cell viability, leukemia and solid tumor cell panel; format: cell-based; conditions: 48 hours
Text: The results, shown in FIG. 7A and FIG. 7B, are expressed as a percent of vehicle control and presented as means±SEM (n=3).

A20 lymphoma = conditions: 50 mg/kg i.v., alone or with 6.0 Gy irradiation
Procedure: A20 lymphoma was induced in normal BALB/c male mice by the tail vein injection of 5×10^5 cultured A20 cells. Two days later, the mice were assigned to groups of 10 mice each and received i.v. 1) saline, 2) 50 mg/kg D609, 3) saline plus 6.0 Gy irradiation or 4) D609 plus irradiation. Total body irradiation was given 10 min after D609 injection. Survival of each mouse was then followed by daily monitoring and weighing (5×/week).

various tumor cells = assay: IR-induced apoptosis of tumor cells; format: cell-based
[4] = system: ceramide and DAG levels in U937 cells; assay: Ceramide and DAG levels in U937 cells by DAG kinase assay; format: cell-based, Human; conditions: 2 hrs
Procedure: To validate if inhibition of SMS may mediate D609-induced tumor cell death, the cellular level of SMS activity in U937 cells treated with vehicle or D609 were studied. […] NBD-C6-ceramide and PC were incubated with the cell lysates containing 50 μg proteins for 30 min at 30° C. The formation of NBD-C6-sphingomyelin was analyzed by TLC and quantified by determination of the fluorescent intensity of NBD-C6-sphingomyelin using a phosphoimager. The results, shown in FIGS. 10B-10D, are expressed as percent of the control cultures with vehicle and presented as means±SEM (n=3). […] The levels of ceramide (FIG. 10B) and DAG (FIG. 10C) were analyzed by the DAG kinase assay, normalized to the levels of cellular phospholipid and expressed as pmole/nmole phophate (pi) or the ratio of ceramide and DAG (FIG. 10D). The results represent means±SEM (n=3).

[5] = system: sphingomyelin synthase (SMS); assay: SMS activity in U937 cell lysates with inhibitor added (cell lysate-based in vitro assay); format: biochemical, Human; conditions: 30 min at 30° C.
Procedure: (§1) In this study, p-nitrophenyl-phosphorylcholine (pNPP, 40 mM) was incubated with 2 U/ml phospholipase C (Type XI from B. cereus) in the presence or absence of various concentrations of inhibitors for 2 hrs at 37° C. The amount of the cleaved substrate pNPP was quantified by determination of the optical density at 410 nm using an ELISA reader. The results are expressed as percent of vehicle control and presented as means±SEM (n=3) (FIG. 9A). NBD-C6-ceramide and PC were incubated with U937 cell lysates containing 50 μg protein in the presence or absence of various concentrations of inhibitors for 30 min at 30° C. The formation of NBD-C6-sphingomyelin as analyzed by TLC and quantified by determination of the fluorescent intensity of NBD-C6-sphingomyelin using a phosphorimager. The results are expressed as percent of vehicle control (FIG. 9B). U937 cells were incubated with different concentrations of inhibitors for 48 hours.

[6] = system: Mouse splenic lymphocytes; assay: IFNγ production of ConA-stimulated lymphocytes, ELISA; format: cell-based
Procedure: (§2) Studies were conducted to determine whether D609 enhances mouse splenic lymphocyte mitogenic responses and IFNγ production. Mouse splenic lymphocytes at 2.5×10^6/ml were stimulated with LPS or ConA in the presence or absence of D609. The cell proliferation was measure by 3H-thymidine incorporation after the cells were cultured with LPS (FIG. 8A) or with ConA (FIG. 8B). […] In addition, the supernatants of ConA-stimulated lymphocyte cultures were harvested at various times and measured for IFNγ production by ELISA (FIG. 8C).

BALB/c mice = assay: Protection of mice from IR-induced lethality; format: in vivo; conditions: 50 mg/kg iv 10 min prior to 6.5 or 8.5 Gy total body IR; 30-day observation
Procedure: BALB/c mice were exposed to 6.5 or 8.5 Gy total body IR 10 minutes after they received a single dose (50 mg/kg) of iv injection of D609 or vehicle (saline) through the tail vein. The death of these mice was recorded during a 30-day observation period after IR.
Moreover, when D609 (50 mg/kg, iv) was administered to mice 10 min prior to total body

[7] = biological target: phospholipase C (Type XI from B. cereus) (Bacillus cereus, UniProt P09598); format: biochemical; conditions: 2 hrs at 37° C., pNPP 40 mM
Procedure: as §1

[8] = Cyclic voltammetry, reducing power (E1/2) at physiological pH; format: physicochemical; conditions: 2 mM in PBS (pH 7.4)
Procedure: D609 was dissolved in PBS (pH 7.4) at 2 mM concentration, and E1/2 was measured using a cyclic voltammetry apparatus (Model CV-2, from BAS, West Lafayette, 1N).

[9] = system: Mouse splenic lymphocytes; assay: Mitogen-stimulated lymphocyte proliferation, 3H-thymidine incorporation; format: cell-based; conditions: 188 μM=50 μg/ml
Procedure: as §2

A20 cells = assay: MTT cell viability and growth, A20 cells
Procedure: The cell viability was analyzed by MTT assay after A20 cells were cultured with vehicle or different concentrations of D609 for 48 hrs. […] A20 cells were untreated (Control), irradiated (IR 4 Gy), incubated with D609 alone, or treated with both D609 and IR. The cell viability and/or proliferation were measured by MTT assay at different times after the cells were placed into well of 96-well plate (2×10^4/0.2 ml/well). The results are expressed as means±SEM (n=3) (FIG. 13B).

Chain of phospholipase C (Type XI from B. cereus) (P09598 39-283 limits assumed): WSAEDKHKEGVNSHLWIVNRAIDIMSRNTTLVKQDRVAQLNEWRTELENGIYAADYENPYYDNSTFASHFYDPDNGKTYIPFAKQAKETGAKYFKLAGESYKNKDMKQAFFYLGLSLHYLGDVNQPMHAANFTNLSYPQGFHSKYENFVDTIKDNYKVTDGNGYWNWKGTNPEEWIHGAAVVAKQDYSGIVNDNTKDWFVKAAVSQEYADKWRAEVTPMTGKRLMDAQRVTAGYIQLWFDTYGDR

Row | Compound | apoptosis (sub-G0/1 cells) (U937 cells) | T1/2 [1] | LD50 [2] | cell viability [3] | therapeutic response (A20 lymphoma) | protection of tumor cells from IR-induced apoptosis (various tumor cells) | level of DAG [4] | level of ceramide [4] | ratio between ceramide and DAG [4] | inhibition of SMS activity [5] | production of interferon-γ (IFNγ) [6] | protection from IR-induced lethality (BALB/c mice) | cell viability ([2]; 48 hours) | inhibition of PC-PLC activity [7] | E1/2 [8] | mitogenic responses to LPS or ConA [9] | LD50 (A20 cells; 48 hrs) | response of A20 cells to IR (A20 cells; IR 4 Gy)
1 | CCCC(=O)OCSC(=S)OC1CC2CC1C1CCCC21 (centres unmarked) [Prodrug 2, S-methyleneoxybutyryl D609] | significantly greater reduction in cell viability and increase in the sub-G0/1 cells than D609-treated cells | 7.559 s | 333.43 µM | – | – | – | – | – | – | – | – | – | – | – | – | – | – | –
2 | S=C([S-])OC1CC2CC1C1CCCC21.[K+] (centres unmarked) [Prodrug D609, Tricyclodecan-9-yl-xanthogenate] | capable of inducing apoptosis | – | 267.51 µM | dose-dependent reduction in cell viability | no significant therapeutic response | failed to protect them from IR-induced apoptosis | decrease in that of DAG | increase in the level of ceramide | dramatically elevated | inhibited the SMS activity in a dose-dependent manner | significantly augmented | protected the mice from IR-induced lethality | relatively resistant | dose-dependently inhibited | 350 mV | enhanced their mitogenic responses | about 106 μM and ~28.2 μg/ml | enhanced their response to IR
